The source of these data is ChEMBL document CHEMBL1201862, “PubChem BioAssay data set” (2004).

Several values for one entry are separate records, joined by “and”; a condition that tells them apart may be missing. Equal values may be shown once.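 Cells were grown in 96-well plates and exposed to each compound for 48 hours at five concentrations; endpoints were interpolated linearly between bracketing concentrations, or set to the highest concentration if not reached. Here, GI50 denotes the concentration required for 50% inhibition of growth.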 Activity calls are given as the source filed them. No stated cut-off is given here; in the data, active = GI50 up to about 1.1 µM and inactive = higher. Bounds are passed on as bounds.

Test systems include 786-0; A498; A549; BT-549; EKVX; HCT-116; HCT-15; HT-29; Hs-578T; LOX IMVI; M14; MDA-MB-435; MOLT-4; Malme-3M; NCI-H23; OVCAR-3; SK-MEL-2; SK-MEL-5; SR; CCRF-CEM.
What all share (assay): NCI anticancer screen, dose series, 48 h

As to `O=C1C=CC(=O)c2c(NCC3CC3)ccc(NCC3CC3)c21`, the GI50 with 786-0 is 56.4 µM (inactive); in the test on A498 it was 60.5 µM (inactive); in the test on A549, 47.8 µM (inactive); in the test with BT-549, 25.9 µM (inactive); in the test with EKVX, 29 µM (inactive); with HCT-116, 37.8 µM (inactive). For the same compound, the GI50 with HCT-15 is 13.3 µM; in the test with HT-29, 32.2 µM (inactive); in the test with Hs-578T, 82.8 µM (inactive); in the test on LOX IMVI, 20.7 µM (inactive); with M14 it was 18.5 µM (inactive); with MDA-MB-435, 19.7 µM (inactive). In addition, the GI50 in the test with MOLT-4 was 11.8 µM (inactive); in the test with Malme-3M it was 19.8 µM (inactive); with NCI-H23, 26.4 µM (inactive); in the test with OVCAR-3, 26.7 µM (inactive); in the test with SK-MEL-2 it was 50.4 µM (inactive); with SK-MEL-5, 22.6 µM (inactive). The GI50 in the test with SR is 21.9 µM (inactive).
For the compound `CC(=O)N1C(=O)/C(=C\C(=O)c2ccc([N+](=O)[O-])cc2)c2ccccc21`, the GI50 with 786-0 was 15.5 µM (inactive); in the test with A498, > 100 µM (inactive); with A549 it was > 100 µM (inactive); in the test with BT-549, 20.9 µM (inactive); in the test with CCRF-CEM, 3.94 µM (inactive); with EKVX, 19.6 µM (inactive). The GI50 in the test with HCT-116 was 18 µM (inactive); in the test with HCT-15 it was 15 µM; with HT-29, 17.8 µM (inactive); with Hs-578T, 22.2 µM (inactive); in the test with M14, 31 µM (inactive); in the test with MDA-MB-435 it was 25.6 µM (inactive). The GI50 in the test with MOLT-4 is 19.5 µM (inactive); in the test with Malme-3M, 20.7 µM (inactive); in the test on NCI-H23, 28.9 µM (inactive); with OVCAR-3 it was 16.7 µM (inactive); with SK-MEL-2, > 100 µM (inactive); in the test with SK-MEL-5 it was 35 µM (inactive). In addition, in the test with SR, the GI50 was 3.61 µM (inactive).
For `COc1cc(-c2c(C(C)=O)c(-c3ccccc3)n(C3OC(COC(C)=O)C(OC(C)=O)C(OC(C)=O)C3OC(C)=O)c(=S)c2C#N)ccc1O` (configuration not stated), the GI50 was > 100 µM (inactive) with 786-0; > 100 µM (inactive) with A498; > 100 µM (inactive) and 88.7 µM (inactive) in the test on A549; 33.1 µM (inactive) with BT-549; 58.3 µM (inactive) in the test on CCRF-CEM; 57.4 µM (inactive) in the test with EKVX. The GI50 in the test with HCT-116 was 70.8 µM (inactive); with HCT-15, above 100 µM; in the test on HT-29, 76.6 µM (inactive) and 76.9 µM (inactive); in the test on Hs-578T it was 70.6 µM (inactive); in the test with LOX IMVI it was > 100 µM (inactive) and 66.5 µM (inactive); in the test on M14, > 100 µM (inactive). The GI50 in the test on MDA-MB-435 is 57.1 µM (inactive) and 35.4 µM (inactive); with MOLT-4, 58.9 µM (inactive) and 60.1 µM (inactive); in the test with NCI-H23, 72.8 µM (inactive); in the test with SK-MEL-5, 37.2 µM (inactive) and 72.4 µM (inactive); with SR, > 100 µM (inactive).
As for `O=C(c1ccccc1)c1ccc2[nH]c(-c3c(Cl)c(Cl)c(Cl)c(Cl)c3C(=O)N/N=C\C=C\c3ccccc3)nc2c1`, the GI50 in the test on 786-0 is 35.8 µM (inactive); in the test with A549, 50.1 µM (inactive); in the test with BT-549, 47.1 µM (inactive); in the test with CCRF-CEM, 12 µM (inactive); in the test on EKVX, 40.7 µM (inactive); in the test on HCT-116, 58.6 µM (inactive). For the same compound, the GI50 was 32.5 µM in the test with HCT-15; 45 µM (inactive) in the test on HT-29; 52.7 µM (inactive) in the test with Hs-578T; 48.9 µM (inactive) in the test with LOX IMVI; 53.5 µM (inactive) in the test on M14; 30.1 µM (inactive) in the test with MDA-MB-435. Besides, the GI50 is 17.7 µM (inactive) in the test on MOLT-4; 57.3 µM (inactive) in the test on Malme-3M; 59.3 µM (inactive) in the test with NCI-H23; 25.1 µM (inactive) with OVCAR-3; 37.1 µM (inactive) with SK-MEL-2; 26.9 µM (inactive) in the test with SK-MEL-5. Also, the GI50 in the test on SR is 23.3 µM (inactive).
Consider `CC1=C/C(=N/N2C(=O)/C(=C/c3ccc(Cl)cc3)N=C2c2ccccc2)CC(C)(C)C1`, for which the GI50 is 57 µM (inactive) with 786-0; > 100 µM (inactive) in the test with A498; 78.2 µM (inactive) in the test with A549; > 100 µM (inactive) in the test on BT-549; 81.7 µM (inactive) in the test with EKVX; 91.8 µM (inactive) with HCT-116. Moreover, the GI50 with HCT-15 is above 100 µM; in the test on HT-29, 70.5 µM (inactive); in the test on Hs-578T, 52 µM (inactive); in the test on LOX IMVI, 42.1 µM (inactive); in the test on M14 it was > 100 µM (inactive); in the test on MDA-MB-435 it was 51.3 µM (inactive). In addition, the GI50 was 25 µM (inactive) in the test on MOLT-4; > 100 µM (inactive) in the test on Malme-3M; > 100 µM (inactive) in the test on NCI-H23; 24.9 µM (inactive) with SK-MEL-2; 35.7 µM (inactive) with SK-MEL-5; 31 µM (inactive) in the test on SR.
With `CN(c1cn(C2CC[C@@H](CO)O2)c(=O)[nH]c1=O)C1CCCCC1` (some centres not stated), the GI50 in the test on 786-0, in the test on A498, with A549, in the test with BT-549, in the test with CCRF-CEM and with HCT-116 was > 100 µM (inactive) each time. The GI50 was above 100 µM in the test with HCT-15; > 100 µM (inactive) with HT-29; 30 µM (inactive) in the test on Hs-578T; > 100 µM (inactive) in the test with LOX IMVI; > 100 µM (inactive) in the test with M14; > 100 µM (inactive) in the test with MDA-MB-435. The GI50 with MOLT-4, in the test on Malme-3M, in the test with NCI-H23, with OVCAR-3, with SK-MEL-5 and in the test on SR was > 100 µM (inactive) in each case.
As for `Cc1nc2ccccc2c(=O)n1NC(=O)c1ccccn1`, the GI50 with 786-0, in the test on A498, in the test on A549, in the test with BT-549, in the test with CCRF-CEM and with EKVX was > 100 µM (inactive) throughout. Besides, the GI50 in the test on HCT-116, in the test with HT-29, in the test with Hs-578T, in the test with LOX IMVI, in the test on M14 and with MDA-MB-435 was > 100 µM (inactive) throughout. Also, the GI50 in the test on MOLT-4, in the test with Malme-3M, with NCI-H23, with OVCAR-3, in the test with SK-MEL-5 and with SR was > 100 µM (inactive) each time.
Consider `CCOC(=O)CC(=O)Nc1cccc2sc3ncccc3c(=O)c12`, for which the GI50 is 35 µM (inactive) in the test with 786-0; 18.4 µM (inactive) in the test with A549; 43.4 µM (inactive) with BT-549; 10.8 µM (inactive) in the test on CCRF-CEM; 65.8 µM (inactive) with EKVX; 46 µM (inactive) with HCT-116. The GI50 with HCT-15 was 38.4 µM; in the test on HT-29, 38.8 µM (inactive); in the test with Hs-578T it was 19.1 µM (inactive); with LOX IMVI, 19 µM (inactive); with M14 it was 87.1 µM (inactive); in the test with MDA-MB-435 it was 44.7 µM (inactive). The GI50 in the test with MOLT-4 was 10 µM (inactive); in the test with Malme-3M, 54.6 µM (inactive); in the test on NCI-H23, 32 µM (inactive); in the test with OVCAR-3, 34.4 µM (inactive); in the test on SK-MEL-2, 34.3 µM (inactive); with SK-MEL-5, 5.37 µM (inactive). In addition, in the test on SR, the GI50 is 33.3 µM (inactive).
With `Cc1ccc(C(=O)/C=C2\Nc3ccccc3S\C2=N\CS(=O)(=O)c2ccc(C)cc2)cc1`, the GI50 in the test on 786-0 is > 10 µM (inactive); in the test with A549, > 10 µM (inactive); in the test with BT-549, > 10 µM (inactive); in the test on CCRF-CEM it was > 10 µM (inactive); in the test with HCT-116, > 10 µM (inactive); in the test on HCT-15, above 10 µM. Further, the GI50 was > 10 µM (inactive) in the test with HT-29; 8.43 µM (inactive) in the test with Hs-578T; > 10 µM (inactive) in the test on LOX IMVI; > 10 µM (inactive) in the test with M14; > 10 µM (inactive) in the test on MDA-MB-435; > 10 µM (inactive) in the test on MOLT-4. Besides, the GI50 with Malme-3M was > 10 µM (inactive); in the test on NCI-H23 it was > 10 µM (inactive); in the test on OVCAR-3, 4.33 µM (inactive); in the test on SK-MEL-5 it was > 10 µM (inactive); with SR, > 10 µM (inactive).
Take `CN(C)c1ccc(C=c2c3cc(O)ccc3n3c2cc(-c2ccccc2)[n+]3C)cc1`: the GI50 with 786-0 is 1.09 µM (active); in the test on A498, 4.47 µM (inactive); with A549, 3.73 µM (inactive); in the test on BT-549 it was 0.383 µM (active); in the test with CCRF-CEM it was 0.656 µM (active); in the test on EKVX it was 1.96 µM (inactive). The GI50 in the test on HCT-116 is 1.39 µM (inactive); with HCT-15 it was 18 µM; in the test with HT-29, 1.69 µM (inactive); in the test on Hs-578T, 0.333 µM (active); in the test with LOX IMVI it was 1.18 µM (inactive); with M14 it was 1.51 µM (inactive). Further, the GI50 with MDA-MB-435 was 0.964 µM (active); in the test with MOLT-4 it was 3.27 µM (inactive); in the test on NCI-H23 it was 1.08 µM (active); in the test with OVCAR-3, 0.746 µM (active); in the test on SK-MEL-2, 1.27 µM (inactive); with SK-MEL-5, 0.78 µM (active). Besides, the GI50 with SR is 0.568 µM (active).
As for `O=C(O)c1ccc2c(O)c(O)ccc2c1`, the GI50 in the test on 786-0 is 18.1 µM (inactive); with A498, 44.4 µM (inactive); in the test with A549 it was 28 µM (inactive); with BT-549, 21.6 µM (inactive); in the test with EKVX, 20.8 µM (inactive); in the test on HCT-116 it was 25.9 µM (inactive). Moreover, the GI50 with HCT-15 was 21.6 µM; with HT-29, 6.82 µM (inactive); in the test with Hs-578T, 27.2 µM (inactive); with LOX IMVI, 5.38 µM (inactive); with M14, 23.5 µM (inactive); in the test on MDA-MB-435, 14.1 µM (inactive). The GI50 with MOLT-4 was 6.75 µM (inactive); in the test on Malme-3M, 38.9 µM (inactive); with NCI-H23, 22 µM (inactive); in the test with OVCAR-3, 18.8 µM (inactive); in the test on SK-MEL-2 it was 26.8 µM (inactive); in the test on SK-MEL-5 it was 17.3 µM (inactive). Also, the GI50 in the test with SR is 3.17 µM (inactive).
